Laboratory results reported in PubChem BioAssay AID330 (DTP/NCI, 2004).
Values joined by “and” are separate entries in the source; they are usually repeats but may differ in a detail not shown here. Identical values can stand only once. Toxic doses and inconclusive results are not listed. Rule for the calls: active = survival T/C of 150% or more; inactive = T/C below 125% in these data. Peptide text beside a SMILES is read from it. * marks the point of attachment. Cbz = O=C(OCc1ccccc1)*

Test system: P388 leukemia ip, CD2F1 mice, survival T/C
Test: NCI In Vivo Anticancer Drug Screen. Data for tumor model P388 Leukemia (intraperitoneal) in CD2F1 (CDF1) mice
Conditions: endpoint: median survival time, higher = longer survival
Method in brief: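 Mice carrying the transplanted tumor received test compound or vehicle. Survival was recorded in each group, and the value is the treated-group measurement divided by that of the vehicle-treated control group.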

[1] = dose: 60.0 mg/kg/injection, schedule: Q01DX005 (ip), vehicle: saline
[2] = dose: 50.0 mg/kg/injection, schedule: Q01DX005 (ip), vehicle: saline with Tween-80
[3] = dose: 100.0 mg/kg/injection, schedule: Q01DX005 (ip), vehicle: saline with Tween-80
[4] = dose: 200.0 mg/kg/injection, schedule: Q01DX005 (ip), vehicle: saline with Tween-80
[5] = dose: 100.0 mg/kg/injection, schedule: Q01DX001 (ip), vehicle: Klucel (hydroxypropylcellulose) (HPC)
[6] = dose: 200.0 mg/kg/injection, schedule: Q01DX001 (ip), vehicle: Klucel (hydroxypropylcellulose) (HPC)
[7] = dose: 400.0 mg/kg/injection, schedule: Q01DX001 (ip), vehicle: Klucel (hydroxypropylcellulose) (HPC)
[8] = dose: 50.0 mg/kg/injection, schedule: Q01DX005 (ip), vehicle: Klucel (hydroxypropylcellulose) (HPC)
[9] = dose: 100.0 mg/kg/injection, schedule: Q01DX005 (ip), vehicle: Klucel (hydroxypropylcellulose) (HPC)

Measured: T/C

CCOC(=O)c1ncc(OCC)o1
inactive: dose: 50.0 mg/kg/injection, schedule: Q01DX009 (ip), vehicle: saline 91 % of control | dose: 100.0 mg/kg/injection, schedule: Q01DX009 (ip), vehicle: saline 89 % of control | dose: 200.0 mg/kg/injection, schedule: Q01DX009 (ip), vehicle: saline 95 % of control

CCC[CH2][Sn]([CH2]CCC)([CH2]CCC)[CH2]CC[N+](C)(C)C.CS(=O)(=O)[O-]
inactive: dose: 0.78 mg/kg/injection, schedule: Q01DX009 (ip), vehicle: saline 100 % of control | dose: 1.56 mg/kg/injection, schedule: Q01DX009 (ip), vehicle: saline 101 % of control | dose: 3.12 mg/kg/injection, schedule: Q01DX009 (ip), vehicle: saline 98 % of control

Nc1ncnc2c1ncn2CC(O)CN(CCO)CCO (stereo unspecified) (tested in a mixture with another compound)
inactive: [1] 93 % of control | dose: 120.0 mg/kg/injection, schedule: Q01DX005 (ip), vehicle: saline 95 % of control | dose: 240.0 mg/kg/injection, schedule: Q01DX005 (ip), vehicle: saline 94 % of control

C=C1SC(=Nc2c(C)cc(C)cc2C)N(C(=O)c2sc3ccccc3c2Cl)C12CCCCC2
inactive: dose: 50.0 mg/kg/injection, schedule: Q01DX009 (ip), vehicle: suspension in saline 96 % of control | dose: 100.0 mg/kg/injection, schedule: Q01DX009 (ip), vehicle: suspension in saline 103 % of control | dose: 200.0 mg/kg/injection, schedule: Q01DX009 (ip), vehicle: suspension in saline 91 % of control

Cc1cccc(Cl)c1NC(=O)CCl
inactive: dose: 12.5 mg/kg/injection, schedule: Q01DX009 (ip), vehicle: Klucel (hydroxypropylcellulose) (HPC) 101 % of control | dose: 25.0 mg/kg/injection, schedule: Q01DX009 (ip), vehicle: Klucel (hydroxypropylcellulose) (HPC) 101 % of control | dose: 50.0 mg/kg/injection, schedule: Q01DX009 (ip), vehicle: Klucel (hydroxypropylcellulose) (HPC) 93 % of control | dose: 100.0 mg/kg/injection, schedule: Q01DX009 (ip), vehicle: Klucel (hydroxypropylcellulose) (HPC) 101 % of control

CCC1C=Cc2ccccc2NC1 (stereo unspecified)
inactive: [2] 100 % of control | [3] 94 % of control | [4] 98 % of control

O=CNNc1ccc2nnc(Cl)n2n1
inactive: dose: 100.0 mg/kg/injection, schedule: Q04DX003 (ip), vehicle: saline 101 % of control | dose: 200.0 mg/kg/injection, schedule: Q04DX003 (ip), vehicle: saline 97 % of control | dose: 400.0 mg/kg/injection, schedule: Q04DX003 (ip), vehicle: saline 93 % of control

Cc1ccc(C(C(=O)O)(c2ccc(C)cc2)C(O)C(=O)O)cc1 (stereo unspecified)
inactive: [5] 107 % of control | [6] 107 % of control | [7] 105 % of control

CCc1[nH]c2ccccc2c1C(=O)c1ccncc1
inactive: dose: 100.0 mg/kg/injection, schedule: Q04DX003 (ip), vehicle: suspension in saline 103 % of control | dose: 200.0 mg/kg/injection, schedule: Q04DX003 (ip), vehicle: suspension in saline 101 % of control | dose: 400.0 mg/kg/injection, schedule: Q04DX003 (ip), vehicle: suspension in saline 108 % of control

O=C1c2cc(I)cc(I)c2NC(O)c2cccn21 (stereo unspecified)
inactive: dose: 0.1 mg/kg/injection, schedule: Q01DX005 (ip), vehicle: water 102 % of control | dose: 0.2 mg/kg/injection, schedule: Q01DX005 (ip), vehicle: water 98 % of control | dose: 0.4 mg/kg/injection, schedule: Q01DX005 (ip), vehicle: water 102 % of control | dose: 0.8 mg/kg/injection, schedule: Q01DX005 (ip), vehicle: water 98 % of control | dose: 1.6 mg/kg/injection, schedule: Q01DX005 (ip), vehicle: water 99 % of control | dose: 5.0 mg/kg/injection, schedule: Q01DX005 (ip), vehicle: distilled water + Tween-80 94 % of control | dose: 10.0 mg/kg/injection, schedule: Q01DX005 (ip), vehicle: distilled water + Tween-80 95 % of control | dose: 20.0 mg/kg/injection, schedule: Q01DX005 (ip), vehicle: distilled water + Tween-80 102 % of control | dose: 40.0 mg/kg/injection, schedule: Q01DX005 (ip), vehicle: distilled water + Tween-80 102 % of control | dose: 80.0 mg/kg/injection, schedule: Q01DX005 (ip), vehicle: distilled water + Tween-80 98 % of control

O=C(CCN1C(=O)CC1c1ccco1)N1CCOCC1 (stereo unspecified)
inactive: dose: 60.0 mg/kg/injection, schedule: Q01DX005 (ip), vehicle: saline with Tween-80 103 % of control | dose: 120.0 mg/kg/injection, schedule: Q01DX005 (ip), vehicle: saline with Tween-80 103 % of control | dose: 240.0 mg/kg/injection, schedule: Q01DX005 (ip), vehicle: saline with Tween-80 97 % of control

CCC(C)C(NC(=O)C1CCCN1C(=O)OCc1ccccc1)C(=O)O (stereo not drawn) (Cbz-Pro-Ile-OH; configuration not given here)
inactive: [2] 100 % of control | [3] 106 % of control | [4] 98 % of control

c1ccc2c(CCc3c4ccccc4nc4ccccc34)c3ccccc3nc2c1
inactive: [5] 102 % of control | [6] 105 % of control | [7] 105 % of control

CCOC(=O)C1=C(c2ccccc2)OC(N)=C(C#N)C1c1ccc(C)cc1 (stereo unspecified)
inactive: [8] 113 % of control | [9] 101 % of control | dose: 200.0 mg/kg/injection, schedule: Q01DX005 (ip), vehicle: Klucel (hydroxypropylcellulose) (HPC) 103 % of control

C#CCNC(=O)/C(C)=C(\C)c1ccc(F)cc1
inactive: dose: 50.0 mg/kg/injection, schedule: Q04DX002 (ip), vehicle: Klucel (hydroxypropylcellulose) (HPC) 101 % of control | dose: 100.0 mg/kg/injection, schedule: Q04DX002 (ip), vehicle: Klucel (hydroxypropylcellulose) (HPC) 103 % of control | dose: 200.0 mg/kg/injection, schedule: Q04DX002 (ip), vehicle: Klucel (hydroxypropylcellulose) (HPC) 111 % of control

COc1ccc(-c2nn(-c3ccccc3)c(-c3ccc(OC)cc3)c2N=Nc2ccc(S(=O)(=O)Nc3nnc(C)s3)cc2)cc1
inactive: dose: 100.0 mg/kg/injection, schedule: Q01DX001 (ip), vehicle: saline with Tween-80 100 % of control | dose: 200.0 mg/kg/injection, schedule: Q01DX001 (ip), vehicle: saline with Tween-80 89 % of control | dose: 400.0 mg/kg/injection, schedule: Q01DX001 (ip), vehicle: saline with Tween-80 93 % of control

Cc1ccc(S(=O)(=O)N2CCC(O)(c3ccccc3)CC2)cc1
inactive: [5] 94 % of control | [6] 94 % of control | [7] 93 % of control

CC(=O)[OH+]c1c(I)cc(I)cc1C(=O)[O-].CC(=O)[OH+]c1c(I)cc(I)cc1C(=O)[O-].[Cu+2]
inactive: dose: 15.0 mg/kg/injection, schedule: Q01DX005 (ip), vehicle: saline 106 % of control | dose: 30.0 mg/kg/injection, schedule: Q01DX005 (ip), vehicle: saline 92 % of control | [1] 106 % of control and 109 % of control

N#Cc1nnn(-c2ccc(Cl)cc2)c1N
inactive: [8] 99 % of control | [9] 97 % of control

O=C(CCCCCCCCc1ccc(O)c(O)c1)c1c(O)cccc1O
inactive: dose: 3.0 mg/kg/injection, schedule: Q01DX009 (ip), vehicle: Klucel (hydroxypropylcellulose) (HPC) 101 % of control | dose: 12.0 mg/kg/injection, schedule: Q01DX009 (ip), vehicle: Klucel (hydroxypropylcellulose) (HPC) 108 % of control | dose: 24.0 mg/kg/injection, schedule: Q01DX009 (ip), vehicle: Klucel (hydroxypropylcellulose) (HPC) 101 % of control

O=[N+]([O-])c1ccc(C2=C[P+](c3ccccc3)(c3ccccc3)C=C(c3ccccc3)O2)cc1
inactive: dose: 1.5 mg/kg/injection, schedule: Q01DX005 (ip), vehicle: saline with Tween-80 115 % of control | dose: 1.5 mg/kg/injection, schedule: Q01DX005 (ip), vehicle: saline 117 % of control | dose: 3.0 mg/kg/injection, schedule: Q01DX005 (ip), vehicle: saline with Tween-80 113 % of control | dose: 3.0 mg/kg/injection, schedule: Q01DX005 (ip), vehicle: saline 124 % of control
